Reference: publication PMC5730604
Positions of bridges follow the written chain, without caps; N, C: chain ends. Non-standard residues stand in square brackets, D forms with d. Residues, ends and D or L forms follow the SMILES beside them. Chains are numbered I, II in the order given. *: point of attachment. PEG28 = NCCOCCOCCOCCOCCOCCOCCOCCOCCOCCOCCOCCOCCOCCOCCOCCOCCOCCOCCOCCOCCOCCOCCOCCOCCOCCOCCOCCOCCC(=O)O; Tyr(3-NO2) = N[C@@H](Cc1ccc(O)c([N+](=O)[O-])c1)C(=O)O; Hyp = O=C(O)[C@@H]1C[C@@H](O)CN1; For = O=C*

Assays:
[1] = tested on: A431, U-87 or HT-29 cells; experiment: MTT assay; format: cell-based, Human; details: 100 nM to 10 µM, 24 h or 72 h, A431, U-87, HT-29 cells, triplicates
Procedure: were recorded at 278 K and referenced to the water signal. Spectra were assigned with CCPNMR1 using the sequential assignment protocol. Secondary Hα chemical shif ts were calculated as the difference between the measured Hα chemical shift and the respective random coil shif t.2 Random coil shifts were temperature corrected using the correction factors calculated by Kjaergaard et al.3 For the D-amino acids, the random coil shift of the respective L-amino acid was used, the random coil shif t of Tyr was used for Tyr(3-NO2) and 4.54 ppm was used f or Hyp Hα . Oxid ized Y9 (MW 5268.0) was prepared by dissolving Y9 in Na2HPO4 buff er (50 mM, pH 7.0). After HPLC purif ication, the oxidized Y9 (2.1 mg) was dissolved in 90% H2O/10% D2O (500 µL) at pH 2.9 and NMR spectra were acquired as described above. […]
Stained cells were analyzed by f low cytometr y. […]
At the end of the incubation period (24 h or 72 h at 37°C in 5% CO2) cells were 30- 80% conf luent. […] 04M HCl were added and absorbances were measured at 595 nm.
Absorbances were plotted against the agent’s concentrations. A high absorbance value […]
present in the well as compared to wells with low absorbance values.
Figure S13 : MTT assays showing no ef f ect of Y9 and sc- Y9 on the viability and prolif eration of diff erent tumor cell lines. […] To indicate background: the absorbance values of medium without cells were between 0.11 and […]

[2] = tested on: Balb/c mice; experiment: Dose escalation study and acute toxicity; format: in vivo, Mouse
Procedure: Dose escalation study and evaluation of acute toxicity in mice
T o study whether a repeated subcutaneous dosing of Y9 has any local or systemic toxic effects on animals, the following dose escalation study was performed. Groups of 5 Balb/c mice were inoculated subcutaneously with 100 µl of 0.9 % saline (NaCl) solution containing either 200 nmol, 400 nmol or 800 nmol Y9 . Two control groups (a total of 10 mice) received only 0.9% saline. T he injections were repeated every other day f or a total of seven injections. B ody weig ht and general health observations were evaluated on a daily basis. At day 4 after the last inoculation of the solutions blood was collected under isof lurane anesthesia f or hematology and f or serum analysis by retro- orbital puncture. Organs (sk in, brain, heart, k idney, liver, lung, ovaries/testis, spleen, local and distal lymph nodes, mesentery, small intestine, stomach, pancreas) were isolated af ter euthanasia with an isof lurane overdose for histopathology and body weight-normalized organ weights (brain, kidney, heart, liver, spleen) were calculated.
W eights of the carcass, brain, heart, kidney, liver and spleen were determined and body weight-normalized organ weight in % was calculated as follows:
Body weight-normalized organ weight [%] = organ weight [g] x 100 […]
The following serum parameters were analyzed with the Vitros 250 (Johnson&Johnson) machine measuring parameters at 25°C: […] (CK), alk aline Phosphatase (ALP), Amylase, GOT/AST, GPT/ALT, GGT, LDH, Lipase, total protein (TP), Glucose (GLU), Cholesterol (CHOL), Triglyceride (TRIG), blood urea nitrogen (BUN), Creatinine (CREA), total bilirubin (TBIL), inorganic Phosphorus (PHOS), Sodium (Na), Potassium (K), Calcium (Ca), […]
(MCHC), banded neutrophils, segmented neutrophils, lymphocytes (Lymphs), monocytes (Monos), eosinophils (EOS), basophils (BASO). The organ sections were histopathological […]
pathological abnormalities f ound. […]
glycerin (f inal concentration 227 µg/ml). […]
on a nitrocellulose membrane. For calibration, control serum was spiked with Y9 in […]
The membrane was washed 3
The membrane was f inally washed 3 times in […]
quantitated using Image J software. The calibration samples were used to prepare a linear […]
values of < 0.05 were considered signif icant.

[3] = Balb/c mice, s.c. 200, 400 or 800 nmol every two days for 14 days
[4] = highest dose 800 nmol (printed 800 nm), repeated s.c., day 4 after last dose

For `CC[C@H](C)[C@H](NC(=O)[C@H](CCSC)NC=O)C(=O)N[C@@H](Cc1ccccc1)C(=O)N[C@@H](CC(C)C)C(=O)NCC(=O)NCC(=O)N[C@@H](CCCCNC(=O)CCOCCOCCOCCOCCOCCOCCOCCOCCOCCOCCOCCOCCOCCOCCOCCOCCOCCOCCOCCOCCOCCOCCOCCOCCOCCOCCOCCOCCNC(=O)[C@H]1CSSC[C@@H](N)C(=O)N[C@H](CC(=O)O)C(=O)NCC(=O)N[C@@H](Cc2ccc(O)c([N+](=O)[O-])c2)C(=O)NCC(=O)N2C[C@H](O)C[C@H]2C(=O)N[C@@H](CC(N)=O)C(=O)N1)C(=O)N[C@@H](CCCCNC(=O)CCOCCOCCOCCOCCOCCOCCOCCOCCOCCOCCOCCOCCOCCOCCOCCOCCOCCOCCOCCOCCOCCOCCOCCOCCOCCOCCOCCOCCNC(=O)[C@H]1CSSC[C@@H](N)C(=O)N[C@H](CC(=O)O)C(=O)NCC(=O)N[C@@H](Cc2ccc(O)c([N+](=O)[O-])c2)C(=O)NCC(=O)N2C[C@H](O)C[C@H]2C(=O)N[C@@H](CC(N)=O)C(=O)N1)C(=O)O` [Y9] (I: H-[dC][dD]G[Tyr(3-NO2)]G[Hyp]N[dC][PEG28] / II: H-[dC][dD]G[Tyr(3-NO2)]G[Hyp]N[dC][PEG28] / III: For-MIFLGGKK-OH; disulfide I:1-I:8, II:1-II:8; amide I:C-III:7, II:C-III:8), the “effect on viability and proliferation (MTT)” value [1] was “No effect”, the “hematological analysis including differential hemogram of white blood cells” value ([2]; Balb/c mice, repeated s.c. dosing) was “no significant changes” and the relative organ weights ([2]; Balb/c mice, repeated s.c. dosing, no histopathological abnormalities or steatosis in liver) was “slightly enlarged liver weight”. The “histopathological effects in organs” value ([2]; Balb/c mice, s.c. 200 nmol every two days for 14 days, liver, kidney, pancreas, spleen, heart, lung, ovaries, brain, stomach, intestine, mesentery) was “No histopathological effects”, the “histopathological effects in organs” value ([2]; Balb/c mice, s.c. 400 nmol every two days for 14 days, same organs) was “No histopathological effects” and the kidney histopathology ([2]; Balb/c mice, s.c. 800 nmol every two days for 14 days) was “moderate degenerative changes of the kidney”. For the same compound, the draining lymph nodes [2, 3] was “mild but significant dose-dependent immune infiltration and lymphoid hyperplasia”, the “local effects at the injection site” value [2, 3] was “increased neutrophil and monocyte infiltrates at the injection site” and the “amylase level in serum” value [2, 4] was “significantly increased”. For the same compound, the “blood urea nitrogen (BUN) level in serum” value [2, 4] was “significantly increased”, the “cholesterol level in serum” value [2, 4] was “significantly increased” and the “creatinine (CREA) level in serum” value [2, 4] was “slightly but significant increased”. The “lipase level in serum” value [2, 4] was “slightly but significant increased” and the “triglycerides level in serum” value [2, 4] was “significantly increased”.
